Source: publication PMC3781056, “New Pyrazolopyrimidine Inhibitors of Protein Kinase D as Potent Anticancer Agents for Prostate Cancer Cells” (PLoS ONE, 2013)
Where two headings read alike, the source gives them in different places.

Assays:
[1] = system: DU145 cells infected with Adv-PKD1 or Adv-PKD3; format: cell-based
Method: DU145 cells were infected with null, PKD1, and PKD3 adenoviruses (Adv-null, Adv-PKD1, and Adv-PKD3) at 100 MOI. […] The number of cells that migrated was determined by cell counts in 6 fields. Percentage migration was calculated as the percent of the Adv-null treated with vehicle DMSO (set to 100%). The experiment was repeated three times and data from a representative experiment are shown.

PC3 cells [2] = assay: MTT assay; format: cell-based
Method: PC3 cells were plated in triplicates in 24-well plates. Cells were allowed to attach overnight. […] Cells were counted daily for a total of 5 days. Fresh media and inhibitor were added every 2 days. The means of triplicate determinations were plotted over time. The experiment was repeated twice and results from one representative experiment are shown. […] PC3 cells were seeded into 96-well plates (3000 cells/well) and were then incubated in media containing 0.3–100 µM inhibitors for 72 h. MTT solution was added to each well and incubated for 4 h. Optical density was read at 570 nm to determine cell viability. The IC50 was determined as the mean of two independent experiments for each compound. C. […] Cell cycle distribution was determined by flow cytometry after propidium iodide labeling of fixed cells. Statistical significance was determined by unpaired t-test and is indicated. **, p<0.01; ***, p<0.001. […] The label 1-NA-PP1 is taken from panels A and C, where it is the only substance named in the picture.
PC3 cells were seeded into 96-well plates (3000 cells/well) and allowed to attach overnight. Cells were then incubated in media containing […] inhibitors for 72 h. […] The plate was mix by shaking for 5 min and the optical density was determined at 570 nm.

[3] = system: DU145 cells infected with Adv-PKD1 or Adv-PKD3; format: cell-based; remark: listed apart in the source
Method: After 20 h, noninvasive cells were removed and invasive cells were fixed in 100% methanol, stained in 0.4% hematoxylin solution, and photographed. The number of cells that invaded the Matrigel matrix was determined by cell counts in 6 fields relative to the number of cells that migrated through the control insert. Percentage invasion was calculated as the percent of the cells invaded through Matrigel inserts vs. the total cells migrated through the control inserts. […] DU145 cells were infected with null, PKD1, and PKD3 adenoviruses (Adv-null, Adv-PKD1, and Adv-PKD3) at 100 MOI. After 24 h, cells were replated in control and Matrigel inserts, and a Matrigel invasion assay was conducted as described above. […] All the above experiments were repeated at least three times and data from a representative experiment are shown.

PC3 cells [4] = assay: Wound healing assay (cell migration); format: cell-based; settings: PC3, 30 µM, 22 h after wounding; control completely closed
Method: A.1-NA- PP1 blocked prostate cancer cell migration. PC3 cells were grown to confluence in 6-well plates. Monolayer was wounded and imaged immediately (0 h). […] Percentage wound healing was calculated as the percent of healed wound area as compared to the original wound. […] After 20 h, noninvasive cells were removed and invasive cells were fixed in 100% methanol, stained in 0.4% hematoxylin solution, and photographed. The number of cells that invaded the Matrigel matrix was determined by cell counts in 6 fields relative to the number of cells that migrated through the control insert. Percentage invasion was calculated as the percent of the cells invaded through Matrigel inserts vs. the total cells migrated through the control inserts. C. […] DU145 cells were infected with null, PKD1, and PKD3 adenoviruses (Adv-null, Adv-PKD1, and Adv-PKD3) at 100 MOI. After 24 h, cells were replated in control and Matrigel inserts, and a Matrigel invasion assay was conducted as described above. The overexpression of PKD1 and PKD3 was confirmed by Western blotting analysis (images below the graphs). […]
PC3 or DU145 cells were grown to confluence in 6-well plates. […] The wound gap was measured, and % wound healing was calculated. The average % wound healing was determined based on at least 6 measurements of the wound gap.

PKD1 = biological target: T1, PKD1 (Homo sapiens, UniProt Q15139); assay: Radiometric PKD kinase assay, 10-point IC50; format: biochemical
T1 construct: GST; purchased Enzo Life sciences (Farmingdale, NY)
T1 sequence (Q15139 1-912): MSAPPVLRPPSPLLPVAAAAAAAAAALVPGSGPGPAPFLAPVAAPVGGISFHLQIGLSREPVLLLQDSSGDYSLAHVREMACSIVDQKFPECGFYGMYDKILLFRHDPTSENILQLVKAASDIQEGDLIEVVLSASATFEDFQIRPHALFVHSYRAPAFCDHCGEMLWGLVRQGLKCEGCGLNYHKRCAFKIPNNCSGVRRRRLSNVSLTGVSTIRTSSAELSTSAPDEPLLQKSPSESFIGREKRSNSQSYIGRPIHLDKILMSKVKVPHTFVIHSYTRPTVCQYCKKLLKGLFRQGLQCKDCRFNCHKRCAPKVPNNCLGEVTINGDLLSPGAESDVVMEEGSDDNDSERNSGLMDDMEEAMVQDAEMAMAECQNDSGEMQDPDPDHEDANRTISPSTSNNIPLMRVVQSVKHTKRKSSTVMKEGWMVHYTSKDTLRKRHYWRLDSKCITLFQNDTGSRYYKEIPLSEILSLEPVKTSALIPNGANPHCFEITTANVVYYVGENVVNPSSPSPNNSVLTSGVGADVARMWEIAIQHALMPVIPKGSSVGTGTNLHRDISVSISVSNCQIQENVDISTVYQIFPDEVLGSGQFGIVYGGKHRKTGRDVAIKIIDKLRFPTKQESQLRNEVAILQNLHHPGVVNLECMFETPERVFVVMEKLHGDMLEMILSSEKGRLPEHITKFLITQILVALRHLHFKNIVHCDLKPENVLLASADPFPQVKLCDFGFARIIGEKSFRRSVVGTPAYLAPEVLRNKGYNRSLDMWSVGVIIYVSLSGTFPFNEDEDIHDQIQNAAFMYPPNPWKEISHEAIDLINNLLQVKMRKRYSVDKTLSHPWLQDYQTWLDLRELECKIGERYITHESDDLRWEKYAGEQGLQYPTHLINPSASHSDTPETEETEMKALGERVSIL
Method: Phosphorylation of HDAC5 was detected in a kinase reaction having 1 µCi [γ-^32P] […] The reaction was incubated at 30°C for 10 minutes and 25 µL of the reaction was spotted on Whatman P81 filter paper. The filter paper was washed 3 times in 0.5% phosphoric acid, air dried and counted using Beckman LS6500 multipurpose scintillation counter. Percent PKD1 inhibition was graphed using GraphPad Prism software 5.0.

Row | IC50 (PKD1; mean ± SEM, read-out: IC50 PKD1) [µM] | IC50 (PKD1; value in the figure, read-out: PKD1 IC50) [µM] | Compound | effect of PKD1 or PKD3 overexpression on inhibition of cell migration [1] | IC50 (PC3 cells [2]; Homo sapiens, PC-3, 72 h, read-out: IC50 for cell death (MTT), PC3 cells, 72 h) [µM] | IC50 (PC3 cells [2]; read-out: IC50 for cell death (MTT), PC3 cells, 72 h) [µM] | effect of PKD1 or PKD3 overexpression on inhibition of cell invasion [3] | wounded area remaining open (PC3 cells [4]) [%]
1 |  |  | CC(C)(C)n1nc(-c2cccc3ccccc23)c2c(N)ncnc21 [Compound 1-NA-PP1, 1-(t-Butyl)-3-(naphthalen-1-yl)-1H-pyrazolo[3,4-d]pyrimidin-4-amine] | did not affect | 23.3 ± 5.7 | ~20 | completely reversed | 88.6
2 | 0.154 | 0.162 | O=C(c1ccc(Nc2nccc(-c3cc4ccccc4s3)n2)cc1)N1CCC(N2CCCC2)CC1 [IKK-16, reference compound] |  |  |  |  | 
